The source made the active and inactive calls.
Legend:
[1] = target: Eukaryotic translation initiation factor 4E (Mus musculus, UniProt P63073); assay: eIF4E–eIF4G protein interaction inhibitors, dose response, biochemical, TR-FRET (AID 855); format: functional;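 also: potency for disrupting eIF4E binding to eIF4GI seen as loss of FRET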
[2] = tested on: H4; assay: Luminescence Cell-Based Dose Response HTS to Identify Activators of 5'UTR Stem-Loop Driven Prion Protein mRNA Translation in H4 Neuroglioblastoma Cells. [Related pubchem assays: 1829 (Project Summary), 1814 (Primary HTS)]; format: functional; conditions: Homo sapiens
[3] = target: Nonstructural protein 1 (Influenza A virus, UniProt Q194T2); format: functional, Influenza A virus (A/California/07/2009(H1N1))
[4] = Luminescence Cell-Based Dose Confirmation HTS to Identify Activators of 5'UTR Stem-Loop Driven Alpha-Synuclein mRNA Translation in H4 Neuroglioblastoma Cells. [Related pubchem assays: 1829 (Project Summary), 1814 (Primary HTS)]; format: functional
[5] = Luminescence Cell-Based Dose Response HTS to Identify Activators of Luciferase Translation or Activity in H4 […] Cells. [Related pubchem assays: 1829 (Project Summary), 1814 (Primary HTS)]; format: functional
[6] = cells
[7] = HEp-2 cell cytotoxicity, dose response, cytotoxicity control for RSV inhibitor project, HTS (AID 2410); format: functional; conditions: human respiratory syncytial virus
[8] = microbe, parasite or virus in culture; format: functional; conditions: Mycobacterium tuberculosis
[9] = target: T1, Aminopeptidase N (Plasmodium falciparum FcB1/Columbia, UniProt O96935); assay: P. falciparum M1AAP inhibitors, biochemical, fluorogenic H-Leu-NHMec substrate, 1536-well (AID 1445); design: species or system Plasmodium falciparum 3D7, 3D7
T1 sequence (O96935 whole entry): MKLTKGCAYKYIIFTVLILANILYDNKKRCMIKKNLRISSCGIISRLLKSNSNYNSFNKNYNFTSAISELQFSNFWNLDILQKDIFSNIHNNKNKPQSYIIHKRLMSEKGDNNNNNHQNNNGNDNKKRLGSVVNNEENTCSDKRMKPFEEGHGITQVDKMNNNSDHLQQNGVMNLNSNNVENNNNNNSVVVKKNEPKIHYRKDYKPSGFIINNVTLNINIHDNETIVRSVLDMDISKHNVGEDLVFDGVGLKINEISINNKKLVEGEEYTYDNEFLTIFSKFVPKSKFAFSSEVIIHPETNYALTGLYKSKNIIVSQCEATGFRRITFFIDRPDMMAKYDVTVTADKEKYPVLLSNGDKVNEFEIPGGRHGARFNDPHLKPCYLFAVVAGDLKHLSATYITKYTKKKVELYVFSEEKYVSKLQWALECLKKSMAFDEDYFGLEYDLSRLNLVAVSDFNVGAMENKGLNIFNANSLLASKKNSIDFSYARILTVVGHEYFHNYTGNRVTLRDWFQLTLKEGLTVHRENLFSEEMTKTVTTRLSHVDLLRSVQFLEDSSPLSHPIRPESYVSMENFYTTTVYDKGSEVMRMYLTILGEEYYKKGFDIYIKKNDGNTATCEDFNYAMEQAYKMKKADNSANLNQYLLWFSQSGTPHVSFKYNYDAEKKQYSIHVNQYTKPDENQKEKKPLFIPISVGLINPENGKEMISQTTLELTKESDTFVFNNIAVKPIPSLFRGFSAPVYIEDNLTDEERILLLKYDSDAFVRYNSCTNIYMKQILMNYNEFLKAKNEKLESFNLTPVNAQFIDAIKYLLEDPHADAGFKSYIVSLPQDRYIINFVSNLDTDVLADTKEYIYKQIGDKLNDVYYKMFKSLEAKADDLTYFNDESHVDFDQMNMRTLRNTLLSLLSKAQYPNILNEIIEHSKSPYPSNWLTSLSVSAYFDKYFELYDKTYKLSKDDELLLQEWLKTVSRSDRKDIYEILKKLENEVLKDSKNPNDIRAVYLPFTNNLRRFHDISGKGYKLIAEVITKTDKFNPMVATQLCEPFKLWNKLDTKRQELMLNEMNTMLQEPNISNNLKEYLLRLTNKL

[10] = target: T2, Coagulation factor XII (Homo sapiens, UniProt P00748); format: functional;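 also: activated factor XIIa alpha cleaving a fluorogenic AMC peptide substrate; inhibitor potency from loss of enzyme activity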
T2 sequence (P00748 whole entry): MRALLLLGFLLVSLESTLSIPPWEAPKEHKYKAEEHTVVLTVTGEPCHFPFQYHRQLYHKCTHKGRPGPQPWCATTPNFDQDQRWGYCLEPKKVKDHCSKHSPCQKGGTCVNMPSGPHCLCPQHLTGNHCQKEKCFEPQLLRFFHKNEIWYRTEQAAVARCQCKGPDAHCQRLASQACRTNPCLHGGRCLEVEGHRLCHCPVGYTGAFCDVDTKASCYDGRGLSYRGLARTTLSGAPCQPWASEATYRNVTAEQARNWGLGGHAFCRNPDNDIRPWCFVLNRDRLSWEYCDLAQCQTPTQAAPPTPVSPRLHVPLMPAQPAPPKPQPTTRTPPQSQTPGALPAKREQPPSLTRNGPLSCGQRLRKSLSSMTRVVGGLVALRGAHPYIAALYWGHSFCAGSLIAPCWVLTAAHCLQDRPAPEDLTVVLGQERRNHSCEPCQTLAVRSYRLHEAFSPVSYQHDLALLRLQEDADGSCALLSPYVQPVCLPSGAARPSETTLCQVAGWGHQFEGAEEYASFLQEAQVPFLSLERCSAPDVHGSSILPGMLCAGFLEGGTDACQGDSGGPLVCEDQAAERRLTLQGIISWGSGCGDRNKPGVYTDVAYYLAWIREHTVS

[11] = target: T3, Streptokinase A (Streptococcus pyogenes serotype M1, UniProt P10520); assay: S. pyogenes streptokinase expression inhibitors, potency, dose response, plasminogen activation absorbance, OD405 (AID 1914); format: functional, Streptococcus pyogenes M1 GAS;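 also: secreted streptokinase activity via plasminogen activation per viability signal from cell pellet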
T3 sequence (P10520 whole entry): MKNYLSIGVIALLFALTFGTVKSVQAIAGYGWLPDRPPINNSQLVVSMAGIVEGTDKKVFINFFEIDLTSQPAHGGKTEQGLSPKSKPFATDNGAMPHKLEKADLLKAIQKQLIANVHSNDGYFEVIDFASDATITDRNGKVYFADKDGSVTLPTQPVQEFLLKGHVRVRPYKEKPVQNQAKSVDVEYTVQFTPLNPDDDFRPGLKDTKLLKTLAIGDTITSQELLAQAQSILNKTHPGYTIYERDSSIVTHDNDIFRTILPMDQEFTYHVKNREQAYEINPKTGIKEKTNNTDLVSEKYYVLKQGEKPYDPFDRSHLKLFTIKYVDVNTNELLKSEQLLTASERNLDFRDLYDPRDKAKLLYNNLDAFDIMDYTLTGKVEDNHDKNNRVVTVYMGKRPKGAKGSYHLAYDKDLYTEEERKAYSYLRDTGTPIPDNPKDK

[12] = tested on: Streptococcus sp. 'group A'; assay: growth inhibition of control SK(-) GAS strain, dose response, counter-screen for streptokinase expression inhibitor project, luminescence, kanamycin, BacTiterGlo, confirmation (AID 1900); format: functional, organism-based
[13] = tested on: Streptococcus; assay: Group A Streptococcus viability loss, dose response, counter-screen for streptokinase expression inhibitor project, luminescence, BacTiterGlo (AID 1915); format: functional, organism-based;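 also: potency for reduction of bacterial viability or growth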
[14] = target: T4, Fatty acid synthase (Homo sapiens, UniProt P49327); assay: FAS thioesterase domain inhibitors, dose response, biochemical, endpoint fluorescence intensity, uHTS hits (AID 624327); format: functional;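 also: fluorescence from hydrolysis of an O-methyl fluorescein acyl ester substrate by the enzyme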
[15] = target: T4, Fatty acid synthase; assay: FAS thioesterase domain inhibitors, dose response, biochemical, kinetic fluorescence intensity (AID 624326); format: functional;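 also: rate of fluorescence rise from hydrolysis of a fluorogenic O-methyl fluorescein ester substrate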
[16] = target: Induced myeloid leukemia cell differentiation protein Mcl-1 (Homo sapiens, UniProt Q07820); format: functional
[17] = Luminescence Cell-Based Dose Response HTS to Identify Inhibitors of 5'UTR Stem-Loop Driven Prion Protein mRNA Translation in H4 Neuroglioblastoma Cells. [Related pubchem assays: 1827 (Project Summary), 1813 (Primary HTS)]; format: functional
[18] = inhibitors of firefly luciferase expression or activity, dose response, H4 neuroglioma cells, luminescence (AID 1990); format: functional, cell-based
[19] = inhibitors of SNCA 5'UTR-driven reporter translation, confirmation, H4 neuroglioma cells, luminescence (AID 1988); format: functional, cell-based

Sequence of Eukaryotic translation initiation factor 4E (P63073 whole entry): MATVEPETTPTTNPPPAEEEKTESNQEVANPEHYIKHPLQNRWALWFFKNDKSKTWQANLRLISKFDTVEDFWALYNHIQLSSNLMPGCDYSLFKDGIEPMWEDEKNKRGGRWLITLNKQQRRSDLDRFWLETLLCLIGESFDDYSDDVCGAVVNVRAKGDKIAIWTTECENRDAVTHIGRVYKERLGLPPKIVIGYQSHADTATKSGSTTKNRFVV
Sequence of Nonstructural protein 1 (Q194T2 whole entry): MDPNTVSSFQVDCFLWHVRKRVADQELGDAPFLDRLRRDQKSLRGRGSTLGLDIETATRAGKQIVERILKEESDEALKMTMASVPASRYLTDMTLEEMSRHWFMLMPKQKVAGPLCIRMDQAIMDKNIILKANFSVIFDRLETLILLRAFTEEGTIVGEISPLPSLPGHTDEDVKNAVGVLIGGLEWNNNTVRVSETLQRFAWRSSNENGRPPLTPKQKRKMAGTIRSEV
T4 sequence (P49327 whole entry, the tested form may be a part): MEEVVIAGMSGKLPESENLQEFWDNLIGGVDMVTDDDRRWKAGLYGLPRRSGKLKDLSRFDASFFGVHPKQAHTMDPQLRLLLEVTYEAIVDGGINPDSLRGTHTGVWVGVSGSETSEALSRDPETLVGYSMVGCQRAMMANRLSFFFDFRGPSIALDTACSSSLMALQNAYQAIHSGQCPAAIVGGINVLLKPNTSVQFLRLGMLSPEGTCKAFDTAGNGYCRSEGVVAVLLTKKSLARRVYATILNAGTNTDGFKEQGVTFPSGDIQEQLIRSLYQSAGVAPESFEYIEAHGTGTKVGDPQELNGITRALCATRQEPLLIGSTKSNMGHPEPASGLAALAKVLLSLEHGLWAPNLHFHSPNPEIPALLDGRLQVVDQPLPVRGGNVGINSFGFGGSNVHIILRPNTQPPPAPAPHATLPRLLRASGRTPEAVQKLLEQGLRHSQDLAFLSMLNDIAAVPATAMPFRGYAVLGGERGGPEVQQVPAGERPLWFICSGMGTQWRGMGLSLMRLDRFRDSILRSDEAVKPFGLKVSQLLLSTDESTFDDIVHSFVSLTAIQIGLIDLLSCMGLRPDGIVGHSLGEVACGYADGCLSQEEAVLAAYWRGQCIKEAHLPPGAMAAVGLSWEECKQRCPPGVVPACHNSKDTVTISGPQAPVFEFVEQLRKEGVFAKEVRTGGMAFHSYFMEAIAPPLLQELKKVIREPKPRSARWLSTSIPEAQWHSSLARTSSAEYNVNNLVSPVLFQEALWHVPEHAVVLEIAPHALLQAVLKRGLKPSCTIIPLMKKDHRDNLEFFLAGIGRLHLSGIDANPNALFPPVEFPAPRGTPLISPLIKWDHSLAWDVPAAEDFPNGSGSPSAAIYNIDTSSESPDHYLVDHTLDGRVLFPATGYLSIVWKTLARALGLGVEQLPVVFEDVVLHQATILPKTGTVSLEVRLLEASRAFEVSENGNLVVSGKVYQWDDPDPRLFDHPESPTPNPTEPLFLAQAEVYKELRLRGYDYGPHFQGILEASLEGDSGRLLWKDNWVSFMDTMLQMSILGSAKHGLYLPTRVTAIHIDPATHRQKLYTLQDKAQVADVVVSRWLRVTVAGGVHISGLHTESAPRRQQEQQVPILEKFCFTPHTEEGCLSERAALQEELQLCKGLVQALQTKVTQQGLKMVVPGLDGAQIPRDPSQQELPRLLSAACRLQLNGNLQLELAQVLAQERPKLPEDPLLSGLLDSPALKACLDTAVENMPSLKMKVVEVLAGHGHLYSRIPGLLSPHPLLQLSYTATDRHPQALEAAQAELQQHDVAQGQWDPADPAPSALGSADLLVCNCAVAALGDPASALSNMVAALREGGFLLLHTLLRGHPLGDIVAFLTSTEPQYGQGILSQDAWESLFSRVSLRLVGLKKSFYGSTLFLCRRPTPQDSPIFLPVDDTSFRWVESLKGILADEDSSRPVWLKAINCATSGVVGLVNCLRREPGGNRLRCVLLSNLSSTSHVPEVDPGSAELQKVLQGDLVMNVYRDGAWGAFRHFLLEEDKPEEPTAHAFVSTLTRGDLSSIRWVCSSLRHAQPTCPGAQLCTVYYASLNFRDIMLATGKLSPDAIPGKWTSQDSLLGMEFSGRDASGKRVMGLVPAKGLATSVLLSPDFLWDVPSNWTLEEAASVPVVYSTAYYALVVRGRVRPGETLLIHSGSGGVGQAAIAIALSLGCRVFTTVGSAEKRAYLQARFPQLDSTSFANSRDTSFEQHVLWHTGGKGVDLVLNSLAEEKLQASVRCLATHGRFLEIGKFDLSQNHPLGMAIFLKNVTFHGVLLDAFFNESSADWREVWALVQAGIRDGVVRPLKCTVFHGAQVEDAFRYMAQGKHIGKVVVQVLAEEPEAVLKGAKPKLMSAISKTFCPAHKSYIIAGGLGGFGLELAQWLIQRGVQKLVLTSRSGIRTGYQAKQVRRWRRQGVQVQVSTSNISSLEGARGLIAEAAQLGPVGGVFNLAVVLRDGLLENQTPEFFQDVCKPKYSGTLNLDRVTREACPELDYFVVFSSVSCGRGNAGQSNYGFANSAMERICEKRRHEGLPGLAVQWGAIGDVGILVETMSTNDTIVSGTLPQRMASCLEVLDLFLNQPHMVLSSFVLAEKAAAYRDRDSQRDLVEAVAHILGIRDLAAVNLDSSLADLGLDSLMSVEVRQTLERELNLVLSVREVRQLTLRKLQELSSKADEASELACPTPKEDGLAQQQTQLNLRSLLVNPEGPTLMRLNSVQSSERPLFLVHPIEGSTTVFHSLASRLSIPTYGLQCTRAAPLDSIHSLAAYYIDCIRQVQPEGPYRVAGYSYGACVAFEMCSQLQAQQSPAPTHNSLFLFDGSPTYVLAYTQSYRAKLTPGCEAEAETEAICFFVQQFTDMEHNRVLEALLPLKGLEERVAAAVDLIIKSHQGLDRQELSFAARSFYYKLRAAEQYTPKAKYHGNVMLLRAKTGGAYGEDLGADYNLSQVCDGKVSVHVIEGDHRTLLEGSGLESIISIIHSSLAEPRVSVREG
Sequence of Induced myeloid leukemia cell differentiation protein Mcl-1 (Q07820 whole entry): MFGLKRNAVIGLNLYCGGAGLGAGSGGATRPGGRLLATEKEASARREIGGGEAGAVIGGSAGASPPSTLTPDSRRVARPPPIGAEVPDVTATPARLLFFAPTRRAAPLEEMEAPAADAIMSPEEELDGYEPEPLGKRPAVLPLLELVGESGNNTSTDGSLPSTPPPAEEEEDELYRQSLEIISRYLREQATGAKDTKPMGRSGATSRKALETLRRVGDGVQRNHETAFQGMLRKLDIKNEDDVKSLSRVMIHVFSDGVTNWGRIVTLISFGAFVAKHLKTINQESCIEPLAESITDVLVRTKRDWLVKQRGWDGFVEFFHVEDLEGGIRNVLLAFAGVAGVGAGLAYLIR

For CC(=O)C1=C(C)NC(SCc2ccc(C#N)cc2)=C(C#N)C1c1ccco1 (configuration not stated), the IC50 [1] was > 64 µM (inactive).

With C[n+]1c(/C=C/c2ccc(O)cc2)ccc2ccccc21 the EC50 [2] was 7.6 µM (active), the IC50 [3] was > 100 µM (active) and the EC50 [4] was 12.5 µM (active). The EC50 [5] was 5.65 µM (active).

With Cc1nn(-c2ccccc2)c2c1C(c1ccc([N+](=O)[O-])cc1)N1C(=N2)C(=O)Nc2ccccc21 (configuration not stated) the IC50 [6] was 31.5 µM (active), the CC50 [7] was 34.8 µM (active) and the CC50 [8] was 39.3 µM (active).

For CCCOc1ccc(N2C(=O)CC(N(Cc3ccc(OC)cc3)C(S)=Nc3ccccc3)C2=O)cc1 (configuration not stated), the IC50 [6] was 7.34 µM (active) and the CC50 [7] was > 50 µM (active).

With C#CCCOC(=O)N1C2=NC(C(=O)OC)=C(C(=O)OC)[C@@H]3N(CC=C)c4ccccc4[C@]23C[C@H]1C(=O)OC the IC50 [9] was 58.5 µM (active).

In the case of COc1ccc(CN(C(=O)c2snc(C(N)=O)c2N)C(C(=O)NC(C)(C)C)c2ccco2)cc1 (configuration not stated), the IC50 [10] is reported as > 50 µM (inactive).

With Cc1ccc(S(=O)(=O)N2CCN(C(C)C(=O)Nc3ccccc3-c3ccccc3)CC2)cc1 (configuration not stated) the IC50 [1] was > 64 µM (inactive).

For Cc1cc(Br)c2[nH]c3c(c2c1)CCCC3=O, the IC50 [10] was > 50 µM (inactive).

In the case of O=C(COC(=O)c1ccccc1Br)Nc1ccc(F)cc1, the IC50 [10] is reported as > 50 µM (inactive).

In the case of Oc1c(C(c2cccs2)N2CCN(c3ccccc3)CC2)ccc2cccnc12 (configuration not stated), the IC50 [1] is reported as > 64 µM (inactive).

In the case of CC(C1CC2CCC1C2)N1CC(=O)C(c2nc3ccccc3[nH]2)=C1N (configuration not stated), the IC50 [10] is reported as > 50 µM (inactive).

With CC1(C)Oc2ccc3ccc(=O)oc3c2C(/C=N/NC(N)=S)=C1O the EC50 [11] was > 150 µM (not active), the EC50 [12] was 3.2 µM (active) and the IC50 [3] was 26.6 µM (active). For the same compound, the EC50 [13] was 22.8 µM (active).

In the case of COc1ccc(OCC(=O)N2CC3(C)CC2CC(C)(C)C3)cc1 (configuration not stated), the IC50 [1] is reported as > 64 µM (inactive).

For COc1cc(/C=N/NC(=O)C(Cc2c[nH]c3ccccc23)NC(=O)OCc2ccccc2)cc([N+](=O)[O-])c1O (configuration not stated), the IC50 [14] was 5.95 µM (active), the IC50 [9] was 4.75 µM (active) and the IC50 [15] was 8.12 µM (active). For the same compound, the IC50 [16] was 6.11 µM (active).

In the case of COc1ccc(C(C)=O)cc1CSc1nc2cc(C(=O)O)ccc2c(=O)n1Cc1ccccc1, the IC50 [9] is reported as 83.5 µM (active).

For CC1(C)OC(=C/C=N/c2ccc(Cl)cc2)OC1(C)C, the EC50 [17] was > 120 µM (not active), the EC50 [18] was > 120 µM (not active) and the IC50 [10] was > 50 µM (inactive). The EC50 [19] was > 120 µM (not active).

With Cc1ccc(S(=O)(=O)N(C)CCCC(=O)Nc2cc(C)ccc2C)cc1 the IC50 [3] was 22.9 µM (active).

— ChEMBL document CHEMBL1201862, “PubChem BioAssay data set” (2004)
